# Biological target: Epidermal growth factor receptor (Homo sapiens, UniProt P00533)
# Experiment: Inhibition of EGFR (unknown origin)
# Chain of Epidermal growth factor receptor (P00533 whole entry): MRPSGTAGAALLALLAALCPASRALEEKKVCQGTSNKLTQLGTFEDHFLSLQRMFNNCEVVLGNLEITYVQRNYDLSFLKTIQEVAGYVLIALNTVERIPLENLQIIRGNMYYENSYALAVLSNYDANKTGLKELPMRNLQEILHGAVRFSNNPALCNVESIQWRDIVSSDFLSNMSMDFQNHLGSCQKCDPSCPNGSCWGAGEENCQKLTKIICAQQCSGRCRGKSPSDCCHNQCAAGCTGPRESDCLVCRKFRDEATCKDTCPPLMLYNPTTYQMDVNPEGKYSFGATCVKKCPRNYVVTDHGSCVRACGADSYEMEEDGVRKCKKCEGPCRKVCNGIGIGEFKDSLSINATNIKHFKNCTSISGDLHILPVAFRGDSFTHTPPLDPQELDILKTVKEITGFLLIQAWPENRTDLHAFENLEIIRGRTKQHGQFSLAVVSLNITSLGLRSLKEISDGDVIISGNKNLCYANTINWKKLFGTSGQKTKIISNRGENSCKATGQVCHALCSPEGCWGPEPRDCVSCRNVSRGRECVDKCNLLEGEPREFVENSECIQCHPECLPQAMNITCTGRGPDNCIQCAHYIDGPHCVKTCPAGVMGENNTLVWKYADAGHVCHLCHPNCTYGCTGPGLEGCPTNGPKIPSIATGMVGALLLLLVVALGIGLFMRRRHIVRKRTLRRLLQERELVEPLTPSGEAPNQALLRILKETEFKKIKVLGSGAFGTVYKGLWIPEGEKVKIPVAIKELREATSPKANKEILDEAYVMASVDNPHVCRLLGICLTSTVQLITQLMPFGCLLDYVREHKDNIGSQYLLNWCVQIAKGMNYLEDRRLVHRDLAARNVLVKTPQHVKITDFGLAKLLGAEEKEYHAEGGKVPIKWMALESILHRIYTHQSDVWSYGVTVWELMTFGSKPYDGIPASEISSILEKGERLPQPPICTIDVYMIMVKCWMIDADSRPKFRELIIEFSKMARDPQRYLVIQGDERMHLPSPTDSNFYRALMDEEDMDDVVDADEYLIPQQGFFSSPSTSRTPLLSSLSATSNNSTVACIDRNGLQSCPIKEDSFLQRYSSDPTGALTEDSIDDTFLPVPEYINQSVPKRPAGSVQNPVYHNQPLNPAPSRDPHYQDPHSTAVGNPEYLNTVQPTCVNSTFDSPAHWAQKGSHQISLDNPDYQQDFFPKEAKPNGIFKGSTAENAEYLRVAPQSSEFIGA
row,SMILES,IC50 [µM]
1,N=C1NC(=O)/C(=C2/CCNC(=O)c3[nH]c(Br)c(Br)c32)N1,21.1
2,N=C1NC(=O)/C(=C2/CCNC(=O)c3[nH]cc(Br)c32)N1,18.5
3,COc1ccc(Cc2nc(-c3cc(Br)c(OCCCN(C)C)c(Br)c3)c[nH]c2=O)cc1Br [Ma'edamine A],10.6
4,N=C1N=C(NCCS(=O)(=O)O)/C(=C/C(O)CNC(=O)c2cc(Br)c(Br)[nH]2)N1 (centres undefined) [TAUROACIDIN A],37.9

# Reference: ChEMBL document CHEMBL4334490, “Natural products as important tyrosine kinase inhibitors” (Eur J Med Chem, 2019)
